Data reported in patent US20250221966A1, “RXFP1 AGONISTS” (BRISTOL-MYERS SQUIBB COMPANY, priority 2021, published 2025).

Each compound was assayed against T1, human RXFP1 (Homo sapiens, UniProt Q9HBX9) (assay: RXFP1 cAMP assay (hRXFP1 HEK293 cAMP assay, HTRF)). Settings: HEK293 cells stably expressing human RXFP1, 30 min at room temperature, read-out: cAMP hRXFP1 HEK293 Assay EC50.
T1 construct: expressed in transfected cells
T1 sequence (Q9HBX9 1-757): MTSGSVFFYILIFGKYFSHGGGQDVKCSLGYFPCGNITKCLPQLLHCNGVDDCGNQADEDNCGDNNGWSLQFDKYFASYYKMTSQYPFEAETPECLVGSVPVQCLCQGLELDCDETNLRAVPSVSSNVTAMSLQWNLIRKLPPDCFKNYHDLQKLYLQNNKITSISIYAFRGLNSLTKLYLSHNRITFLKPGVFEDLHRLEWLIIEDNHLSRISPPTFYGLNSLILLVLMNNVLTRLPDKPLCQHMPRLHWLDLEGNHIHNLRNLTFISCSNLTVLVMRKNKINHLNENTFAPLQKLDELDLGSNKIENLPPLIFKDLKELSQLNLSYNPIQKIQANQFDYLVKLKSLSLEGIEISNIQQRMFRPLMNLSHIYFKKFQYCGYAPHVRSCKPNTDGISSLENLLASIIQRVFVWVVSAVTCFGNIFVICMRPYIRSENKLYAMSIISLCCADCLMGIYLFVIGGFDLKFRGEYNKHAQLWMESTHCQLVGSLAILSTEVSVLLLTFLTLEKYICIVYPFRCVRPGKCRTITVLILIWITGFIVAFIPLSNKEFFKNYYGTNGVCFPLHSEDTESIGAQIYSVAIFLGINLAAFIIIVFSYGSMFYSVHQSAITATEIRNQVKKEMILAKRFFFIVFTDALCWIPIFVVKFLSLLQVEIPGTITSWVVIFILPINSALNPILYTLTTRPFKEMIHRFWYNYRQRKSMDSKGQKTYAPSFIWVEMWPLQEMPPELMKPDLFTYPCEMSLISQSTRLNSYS
Format: cell-based
Method in brief: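 HEK293 cells stably expressing human RXFP1 were suspended in HBSS (Ca/Mg) with 20 mM HEPES, 0.05% BSA and 0.5 mM IBMX, then treated with compounds (0.010 nM–50 μM, 2% DMSO final) for 30 min at room temperature. Intracellular cAMP was measured by HTRF, and potency was derived from 4-parameter logistic fits.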

Compound	EC50
COc1ccc(C2=NOC3COCC23)cc1C(=O)N[C@H]1[C@@H](C(=O)Nc2ccc(F)c(C(F)(F)F)c2)[C@H]2CC[C@@H]1/C2=C\C1CC1 (stereo partly drawn) [Example 417, (1R,2S,3R,4R,Z)-7-(cyclopropylmethylene)-N-(4-fluoro-3-(trifluoromethyl)phenyl)-3-(2-methoxy-5-(3a,4,6,6a-tetrahydrofuro[3,4-d]isoxazol-3-yl)benzamido)bicyclo[2.2.1]heptane-2-carboxamide]	172 nM
COc1ccc(C2=NO[C@H]3C[C@H](CO)C[C@@H]23)cc1C(=O)N[C@H]1[C@@H](C(=O)N[C@H](C)C2(C)CC2)[C@H]2CC[C@@H]1/C2=C\CC(O)C(F)(F)F (stereo partly shown) [compound 815]	1.5 nM
COc1ccc(C2=NOC3CC(CO)CC23)cc1C(=O)N[C@H]1[C@@H](C(=O)NC2CCCC2)[C@H]2CC[C@@H]1/C2=C\C1CC1 (stereo partly shown) [compound 493]	9.5 nM
COc1c(F)cc(-c2ccc3c(c2)S(=O)(=O)N(C(C)(C)C)C3)cc1C(=O)N[C@H]1[C@@H](C(=O)N[C@H](C)C2(C)CC2)[C@H]2CC[C@@H]1/C2=C\C1CC1 [compound 916]	3.6 nM
COc1ccc(-c2ncc(CO)s2)cc1C(=O)N[C@H]1[C@@H](C(=O)Nc2ccc(F)c(C(F)(F)F)c2)[C@H]2CC[C@@H]1/C2=C\C1CCCC1 [compound 750]	3.5 nM
COc1ccc(C2=CCCNC2)cc1C(=O)N[C@@H]1C2CCC(C2=C(C)C)[C@@H]1C(=O)Nc1ccc(F)c(C(F)(F)F)c1 (stereo partly shown) [Example 140]	700 nM
COc1ccc(C2CCCN2C(=O)C(C)(C)O)cc1C(=O)N[C@@H]1C2CCC(C2=CC2CC2)[C@@H]1C(=O)Nc1ccc(F)c(C(F)(F)F)c1 (stereo partly shown) [compound 688]	675 nM
COc1cc(F)c(F)cc1C(=O)N[C@@H]1C2CCC(/C2=C/c2cnoc2)[C@@H]1C(=O)Nc1ccc(F)c(C(F)(F)F)c1 (stereo partly shown) [compound 39]	88 nM
COc1cc(F)c(F)cc1C(=O)N[C@@H]1C2CCC(/C2=C/Br)[C@@H]1C(=O)Nc1ccc(F)c(C(F)(F)F)c1 (stereo partly shown) [Example 11]	230 nM
COc1ccc(N2CC(=O)NC2=O)cc1C(=O)N[C@H]1[C@@H](C(=O)Nc2ccc(F)c(C(F)(F)F)c2)[C@H]2CC[C@@H]1/C2=C\C1CC1 [compound 697]	972 nM
COc1ccc(C2=NO[C@H]3[C@@H]2[C@@H](O)C[C@H]3O)cc1C(=O)N[C@H]1[C@@H](C(=O)Nc2ccc(F)c(C(F)(F)F)c2)[C@H]2CC[C@@H]1/C2=C\C1CC1 (single isomer, unassigned) [compound 539]	29.3 nM
O=C(N[C@H]1[C@@H](C(=O)Nc2ccc(F)c(C(F)(F)F)c2)[C@H]2CC[C@@H]1/C2=C\C1CC1)c1cc(C2=NOC3CC(CO)CC23)ccc1F (single isomer, unassigned) [compound 717]	2320 nM
COc1ccc(C2CC3CN(CCCO)C(=O)C32)cc1C(=O)N[C@H]1[C@@H](C(=O)Nc2ccc(F)c(C(F)(F)F)c2)[C@H]2CC[C@@H]1/C2=C\C1CC1 (single isomer, unassigned) [compound 734]	23 nM
COc1ccc(C2=NOC3COCC23)cc1C(=O)N[C@H]1[C@@H](C(=O)NCc2ccn(C)n2)[C@H]2CC[C@@H]1/C2=C\C1CC1 (stereo partly shown) [compound 722]	4180 nM
COc1cc(F)c(F)cc1C(=O)N[C@@H]1C2CCC(/C2=C/c2ccccc2C#N)[C@@H]1C(=O)Nc1ccc(F)c(C(F)(F)F)c1 (stereo partly shown) [compound 68]	3200 nM
CCC(C)(C)NC(=O)[C@@H]1[C@H](NC(=O)c2cc(C3=NOC4COCC34)ccc2OC)[C@@H]2CC[C@H]1/C2=C/C1CC1 (stereo partly shown) [compound 502]	11.9 nM
COc1c(F)cc(C2=NOC3CC(C(C)O)CC23)cc1C(=O)N[C@H]1[C@@H](C(=O)Nc2ccc(F)c(C(F)(F)F)c2)[C@H]2CC[C@@H]1/C2=C\C1CC1 (stereo partly shown) [compound 850]	2.7 nM
COc1ccc(-c2cc(C3=NOC4CC(CO)CC34)ccc2F)cc1C(=O)N[C@H]1[C@@H](C(=O)Nc2ccc(F)c(C(F)(F)F)c2)[C@H]2CC[C@@H]1/C2=C\C1CC1 (stereo partly shown) [compound 954]	5.3 nM
COc1ccc(C2=NOC3CC(CO)CC23)cc1C(=O)N[C@H]1[C@@H](C(=O)Nc2ccc(F)c(C(F)(F)F)c2)[C@H]2CC[C@@H]1/C2=C\C(C)C (stereo partly shown) [compound 454]	1.9 nM
COc1ccc(-c2cc(C(OC(=O)NC3CCC3)C(F)F)ccc2F)cc1C(=O)N[C@H]1[C@@H](C(=O)Nc2ccc(F)c(C(F)(F)F)c2)[C@H]2CC[C@@H]1/C2=C\C1CC1 (single isomer, unassigned) [Example 230]	1 nM

Compound	EC50
COc1ccc([C@@]2(O)CO[C@@H]3[C@@H](O)CO[C@@H]32)cc1C(=O)N[C@H]1[C@@H](C(=O)Nc2ccc(F)c(C(F)(F)F)c2)[C@H]2CC[C@@H]1/C2=C\C(F)(F)F [compound 713]	1670 nM
COc1ccc(-c2cnn3c2COCC3)cc1C(=O)N[C@H]1[C@@H](C(=O)N[C@H](C)C2(C)CC2)[C@H]2CC[C@@H]1/C2=C\C1CC1 [compound 745]	1.2 nM
COc1cc(F)c(F)cc1C(=O)N[C@@H]1C2CCC(/C2=C/c2ccccc2Cl)[C@@H]1C(=O)Nc1ccc(F)c(C(F)(F)F)c1 (stereo partly shown) [compound 14]	220 nM
COc1ccc(C2=NOC3COCC23)cc1C(=O)N[C@H]1[C@@H](C(=O)N[C@@H](C)c2ccccc2C(F)(F)F)[C@H]2CC[C@@H]1/C2=C\C1CC1 (stereo partly shown) [compound 665]	373 nM
COc1ccc(C2=NOC3CC(O)CC23)cc1C(=O)N[C@H]1[C@@H](C(=O)Nc2ccc(F)c(C(F)(F)F)c2)[C@H]2CC[C@@H]1/C2=C\C(F)(F)F (stereo partly shown) [compound 543]	30.5 nM
COc1ccc(C2CCCN2C(=O)CCO)cc1C(=O)N[C@@H]1C2CCC(C2=CC2CC2)[C@@H]1C(=O)Nc1ccc(F)c(C(F)(F)F)c1 (stereo partly shown) [compound 667]	384 nM
COc1ccc(C2=NOC(C(C)O)C2)cc1C(=O)N[C@H]1[C@@H](C(=O)Nc2ccc(F)c(C(F)(F)F)c2)[C@H]2CC[C@@H]1/C2=C\C1CC1 (single isomer, unassigned) [compound 595]	92.7 nM
COc1c(F)cc(C2=NOC3CC(C)(CO)CC23)cc1C(=O)N[C@H]1[C@@H](C(=O)N[C@H](C)C2(C)CC2)[C@H]2CC[C@@H]1/C2=C\C1CC1 (stereo partly shown) [compound 961]	1 nM
COc1cc(F)c(F)cc1C(=O)N[C@@H]1C2CCC(/C2=C/c2cccc(F)c2)[C@@H]1C(=O)Nc1ccc(F)c(C(F)(F)F)c1 (stereo partly shown) [compound 30]	55 nM
COc1ccc(-c2cccc3c2CN(C(=O)N(C)c2ccccc2)C3)cc1C(=O)N[C@H]1[C@@H](C(=O)Nc2ccc(F)c(C(F)(F)F)c2)[C@H]2CC[C@@H]1/C2=C\C1CC1 [compound 886]	2.7 nM
COc1ccc(-c2cc(C3=NOC4COCC34)ccc2F)cc1C(=O)N[C@H]1[C@@H](C(=O)Nc2ccc(F)c(C(F)(F)F)c2)[C@H]2CC[C@@H]1/C2=C\C1CC1 (stereo partly shown) [compound 911]	7.6 nM
COc1cc(F)c(F)cc1C(=O)N[C@@H]1[C@@H]2CCC(/C2=C/c2ccoc2)[C@@H]1C(=O)Nc1ccc(F)c(C(F)(F)F)c1 [Example 12]	410 nM
COc1ccc(N2C[C@H](O)CC2=O)cc1C(=O)N[C@H]1[C@@H](C(=O)Nc2ccc(F)c(C(F)(F)F)c2)[C@H]2CC[C@@H]1/C2=C\C1CC1 [compound 639]	212 nM
COc1ccc(C2=NOC3CC(C(N)=O)CC23)cc1C(=O)N[C@H]1[C@@H](C(=O)Nc2ccc(F)c(C(F)(F)F)c2)[C@H]2CC[C@@H]1/C2=C\C(F)(F)F (single isomer, unassigned) [compound 482]	6.8 nM
COc1cc(F)c(F)cc1C(=O)N[C@@H]1C2CCC(C2=C(C)C)[C@@H]1C(=O)Nc1ccnc(C(F)(F)F)c1 (stereo partly shown) [compound 75]	2600 nM
COc1ccc(-c2cc(C(OC(=O)NC3CCCC3)C(F)(F)F)ccc2F)cc1C(=O)N[C@@H]1C2CCC(/C2=C/C2CC2)[C@@H]1C(=O)Nc1ccc(F)c(C(F)(F)F)c1 (stereo partly shown) [compound 219]	3 nM
COc1ccc(-c2cc(C(=O)OC(C)(C)C)ccc2F)cc1C(=O)N[C@@H]1C2CCC(/C2=C/C(F)(F)F)[C@@H]1C(=O)Nc1ccc(F)c(C(F)(F)F)c1 (stereo partly shown) [compound 294]	47 nM
COc1ccc(C2CC3COCC32)cc1C(=O)N[C@H]1[C@@H](C(=O)Nc2ccc(F)c(C(F)(F)F)c2)[C@H]2CC[C@@H]1/C2=C\C1CC1 (stereo partly drawn) [Example 725, (1R,2S,3R,4R,Z)-3-(5-(3-oxabicyclo[3.2.0]heptan-6-yl)-2-methoxybenzamido)-7-(cyclopropylmethylene)-N-(4-fluoro-3-(trifluoromethyl)phenyl)bicyclo[2.2.1]heptane-2-carboxamide]	360 nM
COc1ccc(C2=NO[C@H]3C[C@H](CO)CN23)cc1C(=O)N[C@H]1[C@@H](C(=O)Nc2ccc(F)c(C(F)(F)F)c2)[C@H]2CC[C@@H]1/C2=C\C1CC1 [compound 854]	3.9 nM
COc1ccc(C2=NOC(C3(O)CCCCC3)C2)cc1C(=O)N[C@H]1[C@@H](C(=O)Nc2ccc(F)c(C(F)(F)F)c2)[C@H]2CC[C@@H]1/C2=C\C1CC1 (single isomer, unassigned) [compound 549]	33 nM
